6 compounds from patent publication US20160187320A1, “ASSAY FOR SCREENING COMPOUNDS THAT SELECTIVELY DECREASE THE NUMBER OF CANCER STEM CELLS” (THE ROGOSIN INSTITUTE, priority 2011, published 2016) can be followed below.

Assay [1] relates to Docetaxel resistant (DR) cells (DU145-DR, 22RV1-DR). Briefly: Cross-resistance of Docetaxel resistant (DR) cells. It is filed as cell-based, human. Conditions: data not shown.
Another assay concerns 22RV1 cells. Briefly: Cell viability assay (MTS), parental 22RV1. It is filed as cell-based. Conditions: Homo sapiens; parental 22RV1, 72 hours; read-out: Docetaxel IC50. The procedure:
(§1) Human hormone-independent prostate cancer cell lines, DU-145 and 22RV1, were obtained from American Type Culture Collection (ATCC) and maintained in RPMI 1640 medium (Gibco, Invitrogen Corp., Carlsbad, Calif.) supplemented with 10% FBS without antibiotics. Cells were grown at 37° C. in a humidified atmosphere with 5% CO2. DU145 and 22RV1 cells were selected in order to generate a prostate cancer Docetaxel resistance model. […] Thus, the generation of acquired Docetaxel resistance in these two phenotypically distinct cell lines facilitated an approach to study the molecular processes involved in the acquisition of Docetaxel resistance. Docetaxel resistant clones, DU-145-DR and 22RV1-DR, were selected by culturing cells with Docetaxel in a dose-escalation manner. Initial culture was at 5 nM Docetaxel. […]
(§2) Cell viability was analyzed using the Cell titer 96 Aquos Non-Reactive Cell Proliferation Assay (MTS) kit (Promega Corp., Madison, Wis.). […] After 72 hours, color absorbance was measured on a microplate spectrophotometer (Molecular Dynamics) at 450 nm (test wavelength) and 620 nm (reference wavelength). […] Cells were then fixed with 4% paraformaldehyde in PBS, stained with crystal violet solution and formed colonies were visually counted.

In assay [2] the test system is 22RV1 and DU145 parental (sensitive) cells. Briefly: Colony formation assay, Docetaxel sensitive parental cells. It is filed as cell-based, human. To be noted: continuous Docetaxel for 21 days (25 nM in 22RV1, 5 nM in DU145). The procedure: (§3) Cell viability was analyzed using the Cell titer 96 Aquos Non-Reactive Cell Proliferation Assay (MTS) kit (Promega Corp., Madison, Wis.). Cells were seeded at a density of 10^4 in 96-well culture dishes and 24 hours later medium was removed and replaced with new medium alone (control) or medium containing drugs. After 72 hours, color absorbance was measured on a microplate spectrophotometer (Molecular Dynamics) at 450 nm (test wavelength) and 620 nm (reference wavelength). The percentage of surviving cells was estimated by dividing the A 450 nm-A 620 nm of treated cells by the A 450 nm-A 620 nm of control cells. Clonogenic survival assays in response to drug treatment were performed by plating 10^3 cells in 35 mm culture dishes. After 24 hours, cells were left untreated (control) or treated with drugs. Next day, medium was changed and the cells kept growing in fresh medium without any drug or under continuous exposure to drugs. For these continuous exposure experiments, medium plus drugs were replaced every 3 days until clones of drug-resistant cells appeared. Cells were then fixed with 4% paraformaldehyde in PBS, stained with crystal violet solution and formed colonies were visually counted.

A further assay relates to 22RV1-DR cells. Description: Cell viability assay (MTS), Docetaxel resistant 22RV1-DR. To be noted: for IC50: Homo sapiens. It is filed as cell-based, human. As to the method:
as §1, with “Docetaxel. After the sensitive clones were no longer present and the surviving DU-145 and 22RV1 cells repopulated the flask, the concentration of Docetaxel was increased to 10 nM and subsequently to 25 nM, 50 nM, 100 nM and 250 nM. 22RV1-DR cells were further exposed to 500 nM Docetaxel. After exposure to each increasing dose of Docetaxel, the remaining surviving cells were maintained in culture medium containing the last selection escalating dose of Docetaxel. The last drug selection concentration at which the cells were exposed was 250 nM for DU-145-DR and 500 nM for 22RV1-DR, in order to avoid reversibility of the acquired Docetaxel resistance phenotype. The process of acquired drug resistance took 9 months for DU-145-DR and 6.5 months for 22RV1-DR.” for “Docetaxel.”
as §2

Another assay concerns DU145-DR cells. Briefly: Cell viability assay (MTS), Docetaxel resistant DU145-DR. It is filed as cell-based, human. To be noted: for IC50: Homo sapiens. The procedure: as §1, with “Docetaxel. After the sensitive clones were no longer present and the surviving DU-145 and 22RV1 cells repopulated the flask, the concentration of Docetaxel was increased to 10 nM and subsequently to 25 nM, 50 nM, 100 nM and 250 nM. 22RV1-DR cells were further exposed to 500 nM Docetaxel. After exposure to each increasing dose of Docetaxel, the remaining surviving cells were maintained in culture medium containing the last selection escalating dose of Docetaxel. The last drug selection concentration at which the cells were exposed was 250 nM for DU-145-DR and 500 nM for 22RV1-DR, in order to avoid reversibility of the acquired Docetaxel resistance phenotype. The process of acquired drug resistance took 9 months for DU-145-DR and 6.5 months for 22RV1-DR.” for “Docetaxel.”
as §2

Assay [3] has as its system DU145-CK19 promoter-GFP stable cells. Briefly: Flow cytometry of GFP populations surviving Docetaxel. Conditions: Docetaxel 10 nM, 48 hours. In kind it is cell-based, human. The text has this:
CK19 gene promoter region was amplified from DU145 cells genomic DNA by PCR with specific primer sets (Fw 5′-[…]-3′ (SEQ ID NO: 1) and Rv 5′-[…]-3′ (SEQ ID NO: 2)) as described previously (Tripathi et al., 2005. The PCR products were digested with Ase I and Hind III and cloned into pEGFPN1 vector (Clontech, Mountain View, Calif.) previously digested with the same enzymes. As a result, the CMV promoter was removed from the original vector and the GFP expression was under control of the CK19 promoter. The final construct was confirmed by digestion and sequencing analysis. DU145 cells were transfected with pCK19-GFP construct using Lipofectamine Plus 2000 (Invitrogen). After 24 hours, medium was replaced with fresh medium and stably expressing cells selected in the presence of G418 (Invitrogen). Positive clones were confirmed by direct microscopy and immunofluorescence and also by PCR amplification of GFP coding region using specific primers (Fw 5′-[…]-3′ (SEQ ID NO: 3) and Rv 5′-[…]-3′ (SEQ ID NO: 4)).
Flow cytometry analysis of subpopulations of prostate cancer cells were carried out following standard procedures. Intracellular CK19 and CK18 expression was performed in single-cell suspensions fixed with 70% ethanol, whereas the expression of cell surface HLA class I and GFP was determined in fresh cell samples (without fixation). […] A minimum of 10^4 cells were measured per sample.
(Flow cytometry measures light scatter and fluorescence of single cells or particles in a stream.)

In assay [4] the test system is DU145-CK19 promoter-GFP stable cells sorted by GFP/HLA class I. Briefly: Colony formation assay of GFP/HLA class I sorted cells under Docetaxel. To be noted: Docetaxel 10 nM continuously. It is filed as cell-based, human. As to the method:
as §3

In assay [5] the test system is 22RV1-DR and DU145-DR (resistant) cells. Description: Colony formation assay, Docetaxel resistant cells. It is filed as cell-based, human. To be noted: continuous Docetaxel for 21 days. The procedure: as §3
Another assay relates to DU145 cells. Description: Cell viability assay (MTS), parental DU145. In kind it is cell-based. To be noted: Homo sapiens, DU-145; parental DU145, 72 hours; read-out: Docetaxel IC50. As to the method: as §1, §2

`N.N.[Cl][Pt][Cl]` [Cisplatin]: in [1], the “cross-resistance of Docetaxel resistant cells” value is recorded as “cross-resistance”.
Turning to `CC(=O)O[C@@]12CO[C@@H]1C[C@H](O)[C@@]1(C)C(=O)[C@H](O)C3=C(C)[C@@H](OC(=O)[C@H](O)[C@@H](NC(=O)OC(C)(C)C)c4ccccc4)C[C@@](O)([C@@H](OC(=O)c4ccccc4)[C@H]21)C3(C)C` [Docetaxel], the IC50 amounted to 25 nM in the assay on 22RV1 cells; 10000 nM with 22RV1-DR cells (22RV1-DR acquired resistant cells, 72 hours); 50 nM in the assay with 22RV1-DR cells (22RV1-DR after 12 weeks of drug withdrawal); 1000 nM with DU145-DR cells (DU145-DR acquired resistant cells, 72 hours); 25 nM with DU145-DR cells (DU145-DR after 12 weeks of drug withdrawal); 5 nM in the assay on DU145 cells. In addition, the colony formation entry in assay [2] was “No colonies were observed”; in [5], “colonies were observed”. For the same compound, the “fold increase of Docetaxel IC50” value is listed as 400 fold in the assay with 22RV1-DR cells (22RV1-DR versus 22RV1) and 200 fold with DU145-DR cells (DU145-DR versus DU145). Besides, in [3] (initially 6.4±4.3%), the “GFP-negative phenotype, % of the total population after treatment” value came to 73.1±10.2%. In addition, the “GFP-positive phenotype, % of the total cell population after treatment” value in assay [3] (initially 87.5±10.4%) was 28.3±10.6%. Also, the “clone formation under continuous exposure” value in assay [4] was “only tumour cells with a GFP-negative/HLA class I-negative phenotype were able to form clones”.
In the case of `COc1cccc2c1C(=O)c1c(O)c3c(c(O)c1C2=O)C[C@@](O)(C(=O)CO)C[C@@H]3O[C@H]1C[C@H](N)[C@H](O)[C@H](C)O1` [Doxorubicin], the “cross-resistance of Docetaxel resistant cells” value in assay [1] is “cross-resistance”.
On to `O=C1c2c(O)ccc(O)c2C(=O)c2c(NCCNCCO)ccc(NCCNCCO)c21` [Mitoxantrone], for which the “cross-resistance of Docetaxel resistant cells” value in [1] was “cross-resistance”.
Still for that read-out and setting: as for `CC(=O)O[C@H]1C(=O)[C@@]2(C)[C@H]([C@H](OC(=O)c3ccccc3)[C@]3(O)C[C@H](OC(=O)[C@H](O)[C@@H](NC(=O)c4ccccc4)c4ccccc4)C(C)=C1C3(C)C)[C@]1(OC(C)=O)CO[C@@H]1C[C@@H]2O` [Paclitaxel], the entry is “cross-resistance”; as for `CCC1=C[C@@H]2CN(C1)Cc1c([nH]c3ccccc13)[C@@](C(=O)OC)(c1cc3c(cc1OC)N(C)[C@H]1[C@@](O)(C(=O)OC)[C@H](OC(C)=O)[C@]4(CC)C=CCN5CC[C@]31[C@@H]54)C2` [Vinorelbine], “cross-resistance”.

By IC50 is commonly meant the concentration at which inhibition is half-maximal.
